Source: patent publication USRE47785E1, “7-{(3S,4S)-3-[(cyclopropylamino)methyl]-4-fluoropyrrolidine-1-yl}-6-fluoro-1-(2-fluoroethyl)-8-methoxy-4-oxo-1,4-dihydroquinoline-3-carboxylic acid crystal” (KYORIN PHARMACEUTICAL CO., LTD., priority 2011, dated 2019)
Like-named read-outs stand apart in the source and are kept apart here.

Legend:
[1] = Storage stability test (40° C., 75% RH, open or closed, opaque containers, HPLC); details: for amount of remaining unaltered crystals, INITIAL: 40° C./75% RH storage test
From the text: HPLC conditions: a column, which is Inertsil ODS-3V manufactured by GL Sciences Inc., and has an inner diameter of 4.6 mm, a length of 15 cm, and a particle diameter of […] was used. […] The measurement wavelength used was 294 nm.

[2] = Test of solubility in water
[3] = Test of storage stability against light (D65 fluorescent lamp irradiation)

Compound | melting point | amount of remaining unaltered crystals, INITIAL [1] | change in the amount of unaltered crystals at 4 weeks (in words) ([1]; 40° C./75% RH) | amount of remaining unaltered crystals, 4 WEEKS CLOSED CONDITION ([1]; 40° C./75% RH) | amount of remaining unaltered crystals, 4 WEEKS OPEN CONDITION ([1]; 40° C./75% RH) | SOLUBILITY [2] | amount of remaining unaltered crystals, total irradiation amount 110,000 lx·hrs [3] | change in the amount of unaltered crystals at 110,000 lx·hrs (in words) [3] | amount of remaining unaltered crystals, total irradiation amount 220,000 lx·hrs [3] | amount of remaining unaltered crystals, total irradiation amount 530,000 lx·hrs [3] | amount of remaining unaltered crystals, total irradiation amount 860,000 lx·hrs [3] | amount of remaining unaltered crystals, total irradiation amount 1,280,000 lx·hrs ([3]; 1,280,000 lx·hrs) | change in the amount of crystals at 1,280,000 lx·hrs (in words) ([3]; 1,280,000 lx·hrs) | amount of remaining unaltered crystals, INITIAL [3] | change in the amount of unaltered crystals at 2 weeks (in words) ([1]; 40° C./75% RH, 2 weeks) | amount of remaining unaltered crystals, 2 WEEKS CLOSED CONDITION ([1]; 40° C./75% RH, 2 weeks) | amount of remaining unaltered crystals, 2 WEEKS OPEN CONDITION ([1]; 40° C./75% RH, 2 weeks) | SOLUBILITY ([2]; Methanesulfonate Salt) | SOLUBILITY ([2]; water, SOLUBILITY) | reduction in the amount of crystals at 1,280,000 lx·hrs ([3]; 1,280,000 lx·hrs)
COc1c(N2C[C@H](CNC3CC3)[C@H](F)C2)c(F)cc2c(=O)c(C(=O)O)cn(CCF)c12.CS(=O)(=O)O (hydrate or solvate) [CRYSTALS OF METHANESULFONATE SALT, 7-{(3S,4S)-3-[(cyclopropylamino)methyl]-4-fluoropyrrolidine-1-yl}-6-fluoro-1-(2-fluoroethyl)-8-methoxy-4-oxo-1,4-dihydroquinoline-3-carboxylic Acid Methanesulfonate Salt] | 207 to 210 °C (dec.) | – | – | – | – | – | – | – | – | – | – | – | – | – | – | – | – | – | – | –
COc1c(N2C[C@H](CNC3CC3)[C@H](F)C2)c(F)cc2c(=O)c(C(=O)O)cn(CCF)c12.Cl [CRYSTALS A, 7-{(3S,4S)-3-[(cyclopropylamino)methyl]-4-fluoropyrrolidine-1-yl}-6-fluoro-1-(2-fluoroethyl)-8-methoxy-4-oxo-1,4-dihydroquinoline-3-carboxylic Acid Hydrochloride Salt (Crystals A)] | – | 99.52 | no change | 99.52 | 99.51 | >10 mg/mL | 97.74 | almost no change | 97.43 | 97.32 | 96.32 | 91.33 | found to decrease | 98.68 | – | – | – | – | – | –
COc1c(N2C[C@H](CNC3CC3)[C@H](F)C2)c(F)cc2c(=O)c(C(=O)O)cn(CCF)c12.Cl.O [CRYSTALS B, 7-{(3S,4S)-3-[(cyclopropylamino)methyl]-4-fluoropyrrolidine-1-yl}-6-fluoro-1-(2-fluoroethyl)-8-methoxy-4-oxo-1,4-dihydroquinoline-3-carboxylic Acid Hydrochloride Salt Hydrate (Crystals B)] | – | 99.59 | no change | 99.65 | 99.64 | >10 mg/mL | – | – | – | – | – | – | – | – | – | – | – | – | – | –
COc1c(N2C[C@H](CNC3CC3)[C@H](F)C2)c(F)cc2c(=O)c(C(=O)O)cn(CCF)c12.Cl.O [CRYSTALS C, 7-{(3S,4S)-3-[(cyclopropylamino)methyl]-4-fluoropyrrolidine-1-yl}-6-fluoro-1-(2-fluoroethyl)-8-methoxy-4-oxo-1,4-dihydroquinoline-3-carboxylic Acid Hydrochloride Salt Hydrate (Crystals C)] | – | 99.75 | – | – | – | – | – | – | – | – | – | – | – | – | found to decrease | 99.37 | 99.47 | – | – | –
COc1c(N2C[C@H](CNC3CC3)[C@H](F)C2)c(F)cc2c(=O)c(C(=O)O)cn(CCF)c12.CS(=O)(=O)O [CRYSTALS OF METHANESULFONATE SALT, 7-{(3S,4S)-3-[(cyclopropylamino)methyl]-4-fluoropyrrolidine-1-yl}-6-fluoro-1-(2-fluoroethyl)-8-methoxy-4-oxo-1,4-dihydroquinoline-3-carboxylic Acid Methanesulfonate Salt] | – | 95.18 | no change | 96.09 | 95.89 | – | 98.01 | almost no change | 97.5 | 96.91 | 95.37 | 95.11 | found to decrease | 98.83 | – | – | – | >10 mg/mL | ≥ 10 mg/mL | –
COc1c(N2C[C@H](CNC3CC3)[C@H](F)C2)c(F)cc2c(=O)c(C(=O)O)cn(CCF)c12 [FREE CRYSTALS, 7-{(3S,4S)-3-[(cyclopropylamino)methyl]-4-fluoropyrrolidine-1-yl}-6-fluoro-1-(2-fluoroethyl)-8-methoxy-4-oxo-1,4-dihydroquinoline-3-carboxylic acid] | – | 95.18 | – | 95.00 | 95.35 | <1 mg/mL | 77.71 | significantly decrease | 75.31 | 66.34 | 49.82 | 44.85 | – | 96.12 | – | 95.13 | 95.27 | – | ≤ 1 mg/mL | ≥ 50%
